# Experimental data reported in US20130040935A1, “CYCLIC KETO-ENOLS FOR THERAPY” (BAYER INTELLECTUAL PROPERTY GMBH, priority 2010, published 2013).
# Read-outs that look alike come from different tables or passages of the source.
# Assays:
# [1] = tested on: malonyl-CoA in a tumour (human MCF-7 breast cancer cells); assay: Mode-of-action experiment: intratumour malonyl-CoA in MCF-7 tumours after oral administration; type: in vivo, female nude mice (NMRI-nude (nu/nu)); settings: Mus musculus, after 7 h
# Description: Mode-of-Action Experiment
# Prior to the determination of the activity in the MCF-7 model, some of the test substances were examined in a “mode of action” experiment. The principle of this experiment is that short-term application of a test substance capable of inhibiting ACC1 and/or ACC2 in a living organism after oral administration reduces malonyl-CoA in a tumour. To this end, in the experiment 2 million human MCF-7 breast cancer cells were injected subcutaneously into female nude mice (NMRI-nude (nu/nu) mice, Taconic M&B A/S, 1 day beforehand administration of a pellet for the release of oestrogen over a period of at least 60 days). Once the tumour extended to an area of about 60-70 mm^2, the test substance was administered orally over a period of 1-3 days, and at defined points in time the intratumour content of malonyl-CoA was then determined and compared to the vehicle control. The method is described in Anal Chem 2008 Aug. 1; 80(15):5736-42. Epub 2008 Jul. 9.).
# [2] = molecular target: T1, human ACC1 (acetyl-coenzyme A carboxylase alpha transcript variant 1) (Homo sapiens, UniProt Q13085); assay: Human ACC1 enzyme assay, Assay B1 (ADP-Glo); type: biochemical
# T1 construct: FLAG (C); made in house; host or cells: baculovirus-infected insect cells (Hi5)
# Miapaca = assay: Cell proliferation assay (CellTiter-Glo, 96 h), Miapaca; type: cell-based; settings: Homo sapiens, MIA PaCa-2
# Description: (§1) In accordance with the invention, the substances were tested in cell-based assays for the ability of the substances of inhibiting tumour cell proliferation after a 96-hour incubation with the substance. Cell viability was tested using the CellTiter-Glo® luminescent cell viability assay (Promega). The cells were sown at a density of 2000-5000 cells/well (depending on the cell line) in 100 μl growth medium on 96-well microtitre plates. For each cell line examined, cells were sown on a separate plate to determine the luminescence at t=0 hours and t=96 hours. After overnight incubation at 37° C., the luminescence values for the t=0 samples were determined. The dose plates for the t=96 hours points in time were treated with substances diluted with growth medium. The cells were then incubated at 37° C. for 96 hours, and the luminescence values for the t=96 hours sample were then determined. For data analysis, the t=0 values were subtracted from the t=96 hour values for treated and untreated samples. The differences in luminescence in percent between substance-treated samples and control values were used to determine the growth inhibition in percent.
# (§2) The substances were tested in the following cell lines which represent the stated indications in an exemplary manner: […]
# HCC-1937 = assay: Cell proliferation assay (CellTiter-Glo, 96 h), HCC-1937; type: cell-based; settings: Homo sapiens, HCC1937
# Description: as §1, §2
# MDA-MB-436 = assay: Cell proliferation assay (CellTiter-Glo, 96 h), MDA-MB-436; type: cell-based; settings: Homo sapiens
# Description: as §1, §2
# MDA-MB-468 = assay: Cell proliferation assay (CellTiter-Glo, 96 h), MDA-MB-468; type: cell-based; settings: Homo sapiens
# Description: as §1, §2
# MCF7 = assay: Cell proliferation assay (CellTiter-Glo, 96 h), MCF7; type: cell-based; settings: Homo sapiens
# Method in brief: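 Growth inhibition in percent after 96 h compound exposure at 37° C, CellTiter-Glo luminescence, with day-0 plate values subtracted from treated and untreated 96 h readings. Seeding density 2000-5000 cells/well depending on cell line, overnight attachment before dosing.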
# [3] = molecular target: human ACC2 (acetyl-coenzyme A carboxylase 2) (Homo sapiens, UniProt O00763); assay: Human ACC2 enzyme assay, Assay B2 (ADP-Glo);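 also: human ACC2 activity read as ADP product, detected by luciferase glow luminescence after residual ATP removal, enzyme near 2 ng/µl in linear range, detection steps at 22 °C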
# KM12 = assay: Cell proliferation assay (CellTiter-Glo, 96 h), KM12; type: cell-based; settings: Homo sapiens, 96-hour incubation
# Description: as §1, §2
# [4] = molecular target: acetyl-CoA carboxylase 2 (ACC2) (Homo sapiens, UniProt O00763); assay: Human ACC2 enzyme assay, Assay A2 (HTRF ADP immunoassay);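 also: ADP generated by ACC2 quantified via competitive time-resolved FRET between europium cryptate anti-ADP antibody and d2-tagged ADP, enzyme kept in linear range near 0.6 ng/µl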
# Description: The inhibitory activity of the substances of this invention with regard to acetyl-CoA carboxylase 2 (ACC2) was measured using the ACC2 assay described in the paragraphs below. The basic principle of the assay is the measurement of adenosine diphosphate (ADP), which is formed as a by-product, by means of an HTRF®-based competitive immunoassay (HTRF=Homogeneous Time Resolved Fluorescence).
# The amount of complex of d2-labelled ADP and europium cryptate-labelled anti-ADP antibody was then determined by measuring the resonance energy transfer of europium cryptate to d2.
# recombinant human ACC1 = recombinant human ACC1 (Homo sapiens, UniProt Q13085); assay: Human ACC1 enzyme assay, Assay A1 (HTRF ADP immunoassay);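 also: ADP generated by the enzyme quantified via competitive time-resolved FRET, read as europium cryptate to d2 energy transfer after 1 h at 22 °C with labelled ADP tracer and anti-ADP antibody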
# [5] = molecular target: ACCase enzyme extracted from oat seedlings (Avena sativa, UniProt A0ACD5YD93); assay: Non-human ACCase assay (malachite green phosphate detection); type: biochemical; settings: comparative compounds, Table V.2; read-out: ACC-non human IC50
# Description: The assay was carried out at room temperature in a transparent 384-well microtitre plate. It determined the inorganic phosphate released from the ATP in the ACCase reaction.
# The test mixture contained 50 mM Tris-HCl pH 8.3, 50 mM KCl, 2.5 mM MgCl2, 0.5 mM ATP, 0.8 mM dithiothreitol (DTT), 30 mM NaHCO3, 0.1 mM acetyl-CoA, 0.04% bovine serum albumin and 0.4 μg partially purified ACCase enzyme in a final volume of 40 μl. After 45 minutes of incubation, the reaction was stopped with 150 μl of malachite green solution, and the absorption at […] was read after 30 minutes.
# The malachite green (MG) solution was prepared by mixing 3 parts of 0.6 mM MG-HCl solution in distilled water with 1 part of 8.5 mM ammonium molybdate in 4 M HCl. The solution was allowed to stand for 30 minutes. After filtration through a 0.45 μm polytetrafluoroethylene (PTFE) filter, 0.1 part of Triton X-100 (1.5%) in distilled water was added.
# ACCase enzyme was extracted from oat seedlings 9 days after sowing and partially purified by precipitation with 0-40% ammonium sulphate followed by ion exchange chromatography on Q-Sepharose.
# [6] = MCF7, Table 7, 96-hour incubation
# [7] = Assay B1, read-out: ACC 1 (=B1) IC50
# [8] = MCF7, 10 mg/kg oral, MCF-7 tumour in nude mice, vs vehicle
Compound,"inhibition in vivo at 10 mg/kg ([1]; MCF7, po, 10 mg/kg, vs Vehicle)",IC50 [2],IC50 (MCF7; [6]),IC50 [3],further results
"Cc1ccc(-c2ccc(Cl)cc2)c(C)c1C1=C(O)C2(CCOCC2)NC1=O [1-1, 3-(4′-chloro-2,4-dimethylbiphenyl-3-yl)-4-hydroxy-8-oxa-1-azaspiro[4.5]dec-3-en-2-one]",39%,245 nM,800 nM,> 20000 nM,"IC50 (Miapaca; 96-hour incubation): 827 nM; IC50 (HCC-1937; 96-hour incubation): 1080 nM; IC50 (MDA-MB-436; MDA-MB-436, 96-hour incubation): 140 nM; IC50 (MDA-MB-468; MDA-MB-468, 96-hour incubation): 274 nM"
"Cc1ccc(-c2ccc(Cl)cc2)cc1C1=C(O)C2(CCOCC2)NC1=O [1-6, 3-(4′-chloro-4-methylbiphenyl-3-yl)-4-hydroxy-8-oxa-1-azaspiro[4.5]dec-3-en-2-one]",68%,133 nM,209 nM,9340 nM,"IC50 (Miapaca; 96-hour incubation): 1250 nM; IC50 (HCC-1937; 96-hour incubation): 873 nM; IC50 (MDA-MB-436; MDA-MB-436, 96-hour incubation): 313 nM; IC50 (MDA-MB-468; MDA-MB-468, 96-hour incubation): 555 nM"
"O=C1N[C@]2(CC[C@@H](OCC(F)(F)F)CC2)C(O)=C1c1cc(-c2ccc(Cl)cc2)ccc1Cl [1-29, (5s,8s)-3-(4,4′-dichlorobiphenyl-3-yl)-4-hydroxy-8-(2,2,2-trifluoroethoxy)-1-azaspiro[4.5]dec-3-en-2-one]",93%,153 nM,32 nM,2620 nM,IC50 (KM12): 132 nM
"Cc1ccc(-c2ccc(Cl)cc2)c(C)c1C1=C(O)[C@]2(CC[C@H](OCC(F)(F)F)CC2)NC1=O [1-30, (5s,8s)-3-(4′-chloro-2,4-dimethylbiphenyl-3-yl)-4-hydroxy-8-(2,2,2-trifluoroethoxy)-1-azaspiro[4.5]dec-3-en-2-one]",82%,–,48 nM,976 nM,"IC50 [2, 7]: 481 nM"
"Cc1ccc(-c2ccc(Cl)cc2)cc1C1=C(O)C2(CCC(OCC(F)(F)F)CC2)NC1=O (centres unmarked) [1-33, 3-(4′-chloro-4-methylbiphenyl-3-yl)-4-hydroxy-8-(2,2,2-trifluoroethoxy)-1-azaspiro[4.5]dec-3-en-2-one]",88%,–,27 nM,2010 nM,"IC50 [2, 7]: 234 nM; IC50 (Miapaca; 96-hour incubation): 193 nM; IC50 (HCC-1937; 96-hour incubation): 108 nM; IC50 (MDA-MB-436; MDA-MB-436, 96-hour incubation): 70 nM; IC50 (MDA-MB-468; MDA-MB-468, 96-hour incubation): 74 nM"
"Cc1ccc(-c2ccc(F)c(F)c2)cc1C1=C(O)C2(CCC3(CCCO3)CC2)NC1=O (centres unmarked) [1-35, 11-(3′,4′-difluoro-4-methylbiphenyl-3-yl)-12-hydroxy-1-oxa-9-azadispiro[4.2.4.2]tetradec-11-en-10-one]",31%,388 nM,94 nM,6910 nM,–
"COCC1CCC2(CC1)NC(=O)C(c1c(C)ccc(-c3ccc(Cl)cc3)c1C)=C2O (centres unmarked) [1-53, 3-(4′-chloro-2,4-dimethylbiphenyl-3-yl)-4-hydroxy-8-(methoxymethyl)-1-azaspiro[4.5]dec-3-en-2-one]",43%,243 nM,70 nM,632 nM,–
"COCC1CCC2(CC1)NC(=O)C(c1cc(-c3ccc(Cl)cc3)ccc1Cl)=C2O (centres unmarked) [1-54, 3-(4,4′-dichlorobiphenyl-3-yl)-4-hydroxy-8-(methoxymethyl)-1-azaspiro[4.5]dec-3-en-2-one]",61%,157 nM,88 nM,1350 nM,–
"CO[C@]1(C)CC[C@]2(CC1)NC(=O)C(c1c(C)ccc(-c3ccc(Cl)cc3)c1C)=C2O [1-87, (5r,8r)-3-(4′-chloro-2,4-dimethylbiphenyl-3-yl)-4-hydroxy-8-methoxy-8-methyl-1-azaspiro[4.5]dec-3-en-2-one]",71%,378 nM,–,10500 nM,IC50 [4]: 7300 nM; IC50 (recombinant human ACC1): 540 nM
"COC[C@H]1CC[C@]2(CC1)NC(=O)C(c1cc(-c3ccc(F)c(F)c3)ccc1C)=C2O [1-112, (5s,8s)-3-(3′,4′-Difluoro-4-methylbiphenyl-3-yl)-4-hydroxy-8-(methoxymethyl)-1-azaspiro[4.5]dec-3-en-2-one]",–,200 nM,79 nM,8430 nM,IC50 (KM12): 174 nM; IC50 [4]: 3910 nM; IC50 (recombinant human ACC1): 167 nM
"CO[C@H]1CC[C@]2(CC1)NC(=O)C(c1cc(-c3ccc(Cl)cc3)ccc1Cl)=C2O [1-120, (5s,8s)-3-(4,4′-Dichlorobiphenyl-3-yl)-4-hydroxy-8-methoxy-1-azaspiro[4.5]dec-3-en-2-one]",–,145 nM,70 nM,2260 nM,IC50 (KM12): 714 nM; IC50 [4]: 1280 nM; IC50 (recombinant human ACC1): 250 nM
"Cc1cc(C)c(-c2ccc(Cl)cc2)cc1C1=C(O)[C@]2(CC[C@@]3(CCCO3)CC2)OC1=O [2-30, (5r,8s)-3-(4′-chloro-4,6-dimethylbiphenyl-3-yl)-4-hydroxy-1,9-dioxadispiro[4.2.4.2]tetradec-3-en-2-one]",–,696 nM,–,243 nM,"inhibition in vivo at 10 mg/kg [1, 8]: 36%; IC50 (Miapaca; MiaPaca cells): 255 nM; IC50 (HCC-1937; HCC-1937 cells): 1500 nM; IC50 (MDA-MB-436; MDA-MB-436 cells): 115 nM; IC50 (MDA-MB-468; MDA-MB-468 cells): 153 nM; IC50 (MCF7; MCF7 cells): 64 nM"
"Cc1ccc(-c2ccc(Cl)cc2)cc1C1=C(O)C2(CCC(OCC(F)(F)F)CC2)OC1=O (centres unmarked) [2-33, 3-(4′-chloro-4-methylbiphenyl-3-yl)-4-hydroxy-8-(2,2,2-trifluoroethoxy)-1-oxaspiro[4.5]dec-3-en-2-one]",–,–,–,5000 nM,"inhibition in vivo at 10 mg/kg [1, 8]: 39%; IC50 ([2]; Assay B1, ADP-Glo, read-out: ACC 1 (=B1) IC50): 227 nM; IC50 (MCF7; MCF7 cells): 246 nM"
CCc1cc(-c2ccccc2)cc(Cl)c1C1C(=O)N2CCOCCN2C1=O [V-1],–,–,–,–,IC50 [5]: 0.5 nM
COC1CCC2(CC1)NC(=O)C(c1c(C)cc(-c3ccc(Cl)cc3)cc1C)=C2O (centres unmarked) [V-2],–,–,–,–,IC50 [5]: 40 nM
COC1CCC2(CC1)NC(=O)C(c1c(C)cc(OC(F)(F)F)cc1Cl)=C2O (centres unmarked) [V-3],–,–,–,–,IC50 [5]: 2 nM
